Test results taken from the supplement of paper PMC12463676, “Small-molecule dissolution of stress granules by redox modulation benefits ALS models” (Nature Chemical Biology, 2025).

compound: NC(=O)CCCCC1CCSS1 [lipoamide]; assay: thermal stability z-score vs DMSO; higher = more thermally stabilized by treatment; settings: HeLa; lipoamide concentration 100 µM; arsenate co-treatment: 1 mM arsenate 1 h
Description: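 Cellular thermal proteome profiling in HeLa cells. Cells were treated with 100 µM lipoamide for 1 h, with or without 1 mM arsenate for a further 1 h, then heated to ten temperatures (37-66.3 °C), and soluble protein was quantified by TMT mass spectrometry relative to 0.1% DMSO controls. The thermal stability score (sum of log2 fold changes minus the abundance score) was transformed to a z-score; mean of n = 3 experiments.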
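Further: each temperature applied for 3 min, abundance score taken as mean log2 fold change at the two lowest temperatures, z-score obtained by mean subtraction and division by SD.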

Sequence of UniProt Q9BWT6 (Q9BWT6 whole entry): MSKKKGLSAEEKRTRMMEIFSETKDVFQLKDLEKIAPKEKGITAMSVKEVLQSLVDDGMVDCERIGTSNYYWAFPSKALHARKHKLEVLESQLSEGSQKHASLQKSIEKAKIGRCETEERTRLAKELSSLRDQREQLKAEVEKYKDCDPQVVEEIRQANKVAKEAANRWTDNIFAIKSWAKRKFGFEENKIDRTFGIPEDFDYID
Sequence of UniProt Q9ULR0 (Q9ULR0 whole entry): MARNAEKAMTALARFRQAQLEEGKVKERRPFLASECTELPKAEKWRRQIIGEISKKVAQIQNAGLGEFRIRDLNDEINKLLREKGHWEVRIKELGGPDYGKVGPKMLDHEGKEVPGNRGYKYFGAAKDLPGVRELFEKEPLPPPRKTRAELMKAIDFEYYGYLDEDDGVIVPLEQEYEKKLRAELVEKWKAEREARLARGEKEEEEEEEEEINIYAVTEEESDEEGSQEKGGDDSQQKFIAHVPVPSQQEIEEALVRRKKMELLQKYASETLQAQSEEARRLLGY
Sequence of UniProt Q96BZ8 (Q96BZ8 whole entry): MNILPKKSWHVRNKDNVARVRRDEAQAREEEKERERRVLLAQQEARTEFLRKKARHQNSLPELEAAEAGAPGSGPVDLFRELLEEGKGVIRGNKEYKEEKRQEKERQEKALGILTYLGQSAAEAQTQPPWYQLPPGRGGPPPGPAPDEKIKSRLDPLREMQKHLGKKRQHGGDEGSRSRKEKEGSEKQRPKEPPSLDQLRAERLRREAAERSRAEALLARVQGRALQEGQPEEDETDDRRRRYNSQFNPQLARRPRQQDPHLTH
Sequence of UniProt P52298 (P52298 whole entry): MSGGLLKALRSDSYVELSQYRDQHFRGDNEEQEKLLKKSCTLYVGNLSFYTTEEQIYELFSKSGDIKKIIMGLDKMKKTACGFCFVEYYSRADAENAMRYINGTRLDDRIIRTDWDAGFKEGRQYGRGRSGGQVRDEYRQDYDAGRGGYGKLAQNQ
Sequence of UniProt O00505 (O00505 whole entry): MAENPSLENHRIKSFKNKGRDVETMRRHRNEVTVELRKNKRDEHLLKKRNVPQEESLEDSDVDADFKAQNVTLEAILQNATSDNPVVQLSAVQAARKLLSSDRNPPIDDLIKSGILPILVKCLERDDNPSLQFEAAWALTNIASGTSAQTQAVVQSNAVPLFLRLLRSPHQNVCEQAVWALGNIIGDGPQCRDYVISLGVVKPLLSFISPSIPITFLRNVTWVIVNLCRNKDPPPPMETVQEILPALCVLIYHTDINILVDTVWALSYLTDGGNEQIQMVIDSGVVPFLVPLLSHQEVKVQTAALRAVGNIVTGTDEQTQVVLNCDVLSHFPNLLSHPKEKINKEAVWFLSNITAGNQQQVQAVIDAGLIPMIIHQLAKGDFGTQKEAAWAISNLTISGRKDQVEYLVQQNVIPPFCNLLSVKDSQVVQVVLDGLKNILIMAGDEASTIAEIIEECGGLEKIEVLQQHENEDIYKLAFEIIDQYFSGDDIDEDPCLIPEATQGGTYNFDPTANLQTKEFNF
Sequence of UniProt P61758 (P61758 whole entry): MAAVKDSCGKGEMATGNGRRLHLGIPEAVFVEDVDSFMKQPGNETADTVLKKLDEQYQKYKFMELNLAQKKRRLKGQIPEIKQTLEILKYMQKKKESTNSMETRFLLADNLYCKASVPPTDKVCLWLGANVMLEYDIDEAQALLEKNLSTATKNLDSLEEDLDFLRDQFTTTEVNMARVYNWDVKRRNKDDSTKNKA

Going from ELMOD2 (UniProt Q8IZ81) to NCBP2 (UniProt P52298), the thermal stability z-score rises from -0.403 to 0.782.

First: BAX (UniProt Q07812)
Sequence of UniProt Q07812 (Q07812 whole entry): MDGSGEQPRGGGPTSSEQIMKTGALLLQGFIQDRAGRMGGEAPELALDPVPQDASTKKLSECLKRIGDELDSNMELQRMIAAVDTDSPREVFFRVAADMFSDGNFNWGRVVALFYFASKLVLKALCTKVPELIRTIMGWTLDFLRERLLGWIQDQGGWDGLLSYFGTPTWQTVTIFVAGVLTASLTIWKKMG
Second: KIAA1429 (UniProt Q69YN4)
The thermal stability z-score of the first is higher: 0.343 for the first, -0.266 for the second.

Going from PLA2G15 (UniProt Q8NCC3) to KPNA3 (UniProt O00505), the thermal stability z-score falls from -0.718 to -1.01.

Going from RAB33B (UniProt Q9H082) to ENAH (UniProt Q8N8S7), the thermal stability z-score falls from 0.43 to -0.14.

First: IL1RAP (UniProt Q9NPH3)
Sequence of UniProt Q9NPH3 (Q9NPH3 whole entry): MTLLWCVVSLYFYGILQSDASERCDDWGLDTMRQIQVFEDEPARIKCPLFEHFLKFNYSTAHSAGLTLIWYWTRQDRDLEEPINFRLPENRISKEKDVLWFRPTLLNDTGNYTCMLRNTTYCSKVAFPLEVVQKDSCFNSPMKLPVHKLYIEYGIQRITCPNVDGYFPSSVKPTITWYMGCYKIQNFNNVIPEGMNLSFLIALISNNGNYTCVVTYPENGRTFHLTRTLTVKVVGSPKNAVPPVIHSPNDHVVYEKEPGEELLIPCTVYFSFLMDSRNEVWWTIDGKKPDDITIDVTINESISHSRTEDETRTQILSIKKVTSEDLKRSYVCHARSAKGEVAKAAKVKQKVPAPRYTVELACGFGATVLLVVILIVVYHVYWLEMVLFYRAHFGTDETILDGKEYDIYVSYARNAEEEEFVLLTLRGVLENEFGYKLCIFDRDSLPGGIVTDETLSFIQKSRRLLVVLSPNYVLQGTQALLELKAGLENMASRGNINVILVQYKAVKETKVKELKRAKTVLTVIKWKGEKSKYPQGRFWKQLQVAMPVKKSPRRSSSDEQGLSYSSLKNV
Second: CDCA3 (UniProt Q99618)
The thermal stability z-score of the first is lower: -0.15 for the first, 0.196 for the second.

First: PIGU (UniProt Q9H490)
Second: RCN2 (UniProt Q14257)
The thermal stability z-score of the first is higher: -0.834 for the first, -3.71 for the second.

First: PNKD (UniProt Q8N490)
Second: OGT (UniProt O15294)
The thermal stability z-score of the first is higher: 0.175 for the first, -0.039 for the second.

First: AHSA1 (UniProt O95433)
Sequence of UniProt O95433 (O95433 whole entry): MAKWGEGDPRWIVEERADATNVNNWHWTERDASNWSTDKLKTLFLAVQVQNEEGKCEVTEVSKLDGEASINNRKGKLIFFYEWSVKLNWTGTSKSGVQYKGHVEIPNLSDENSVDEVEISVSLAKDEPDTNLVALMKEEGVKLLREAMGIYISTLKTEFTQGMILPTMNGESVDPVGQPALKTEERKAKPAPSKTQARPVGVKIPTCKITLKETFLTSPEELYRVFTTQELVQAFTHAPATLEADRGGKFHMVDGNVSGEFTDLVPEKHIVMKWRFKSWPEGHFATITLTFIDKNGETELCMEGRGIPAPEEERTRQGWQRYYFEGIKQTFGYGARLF
Second: ATE1 (UniProt O95260)
The thermal stability z-score of the first is higher: 0.722 for the first, 0.315 for the second.

Going from DIS3 (UniProt Q9Y2L1) to PDE3A (UniProt Q14432), the thermal stability z-score rises from -0.727 to 0.363.

Going from ISY1 (UniProt Q9ULR0) to MND1 (UniProt Q9BWT6), the thermal stability z-score falls from 0.997 to -0.235.

Going from DNAJC8 (UniProt O75937) to DDAH2 (UniProt O95865), the thermal stability z-score rises from 0.653 to 0.838.

First: ATP1B3 (UniProt P54709)
Sequence of UniProt P54709 (P54709 whole entry): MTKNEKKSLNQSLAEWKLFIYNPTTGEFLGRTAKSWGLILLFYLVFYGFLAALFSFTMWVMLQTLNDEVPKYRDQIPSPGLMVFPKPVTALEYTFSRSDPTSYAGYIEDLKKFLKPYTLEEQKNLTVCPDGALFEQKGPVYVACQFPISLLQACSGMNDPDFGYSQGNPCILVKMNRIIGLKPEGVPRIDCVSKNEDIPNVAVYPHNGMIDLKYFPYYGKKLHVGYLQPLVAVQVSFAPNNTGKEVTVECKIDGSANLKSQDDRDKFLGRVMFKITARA
Second: RNF31 (UniProt Q96EP0)
The thermal stability z-score of the first is higher: -0.0616 for the first, -0.101 for the second.

First: ACAA2 (UniProt P42765)
Sequence of UniProt P42765 (P42765 whole entry): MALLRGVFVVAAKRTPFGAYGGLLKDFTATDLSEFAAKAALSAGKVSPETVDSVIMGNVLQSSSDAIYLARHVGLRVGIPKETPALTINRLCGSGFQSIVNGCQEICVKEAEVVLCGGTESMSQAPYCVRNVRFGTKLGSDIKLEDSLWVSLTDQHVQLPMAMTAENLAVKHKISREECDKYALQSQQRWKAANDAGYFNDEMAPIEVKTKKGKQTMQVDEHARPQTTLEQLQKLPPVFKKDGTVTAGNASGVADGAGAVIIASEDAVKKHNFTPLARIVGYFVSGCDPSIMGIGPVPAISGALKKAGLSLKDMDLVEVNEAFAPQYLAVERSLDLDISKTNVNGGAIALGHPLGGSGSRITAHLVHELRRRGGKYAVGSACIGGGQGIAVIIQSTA
Second: GATB (UniProt O75879)
The thermal stability z-score of the first is higher: 0.0666 for the first, 0.0276 for the second.

Compared with GCAT (UniProt O75600), PSMC3 (UniProt P17980) is higher in thermal stability z-score: -0.752 for the first, -0.262 for the second.

First: TMX1 (UniProt Q9H3N1)
Second: GMIP (UniProt Q9P107)
The thermal stability z-score of the first is higher: 0.948 for the first, -0.232 for the second.

Going from VASP (UniProt P50552) to COX19 (UniProt Q49B96), the thermal stability z-score rises from 0.564 to 0.659.

Compared with VBP1 (UniProt P61758), LENG1 (UniProt Q96BZ8) is higher in thermal stability z-score: -0.615 for the first, 0.493 for the second.

First: PTGR2 (UniProt Q8N8N7)
Sequence of UniProt Q8N8N7 (Q8N8N7 whole entry): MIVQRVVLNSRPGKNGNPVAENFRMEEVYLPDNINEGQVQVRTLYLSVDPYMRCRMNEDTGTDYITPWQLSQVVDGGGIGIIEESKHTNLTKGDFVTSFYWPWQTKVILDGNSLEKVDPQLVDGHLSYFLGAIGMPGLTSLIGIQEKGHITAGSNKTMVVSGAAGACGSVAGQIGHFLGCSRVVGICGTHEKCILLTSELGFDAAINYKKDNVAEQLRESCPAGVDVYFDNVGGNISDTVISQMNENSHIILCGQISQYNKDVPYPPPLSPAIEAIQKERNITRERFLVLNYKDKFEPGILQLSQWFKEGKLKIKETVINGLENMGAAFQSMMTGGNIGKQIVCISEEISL
Second: RPL27A (UniProt P46776)
The thermal stability z-score of the first is higher: 2.64 for the first, 0.419 for the second.

Going from SLC9A6 (UniProt Q92581) to CFAP36 (UniProt Q96G28), the thermal stability z-score rises from -0.145 to 0.177.

Compared with TMEM70 (UniProt Q9BUB7), GEMIN6 (UniProt Q8WXD5) is lower in thermal stability z-score: 0.461 for the first, 0.0364 for the second.

First: KCTD20 (UniProt Q7Z5Y7)
Second: MRFAP1 (UniProt Q9Y605)
The thermal stability z-score of the first is lower: -0.132 for the first, 0.86 for the second.

Compared with NUBPL (UniProt Q8TB37), PLRG1 (UniProt O43660) is higher in thermal stability z-score: -0.216 for the first, 1.67 for the second.

First: LLGL2 (UniProt Q6P1M3)
Second: NELFE (UniProt P18615)
The thermal stability z-score of the first is lower: -0.179 for the first, 0.0818 for the second.

First: ZCCHC11 (UniProt Q5TAX3)
Second: SFN (UniProt P31947)
The thermal stability z-score of the first is lower: -0.38 for the first, 0.524 for the second.

Compared with FARSA (UniProt Q9Y285), A0A0B4J2A0|SHPK is higher in thermal stability z-score: -1.41 for the first, -0.157 for the second.

First: POLA1 (UniProt P09884)
Second: MACF1
The thermal stability z-score of the first is lower: -0.387 for the first, -0.0421 for the second.

Going from ALDH6A1 (UniProt Q02252) to ASF1B (UniProt Q9NVP2), the thermal stability z-score rises from -0.315 to -0.0916.

Compared with PPP1CC (UniProt P36873), DCLK2 (UniProt Q8N568) is lower in thermal stability z-score: 0.0493 for the first, -0.19 for the second.

First: HSDL1 (UniProt Q3SXM5)
Second: FYN (UniProt P06241)
The thermal stability z-score of the first is lower: -0.0659 for the first, 0.0671 for the second.

First: CIC (UniProt Q96RK0)
Second: DUSP12 (UniProt Q9UNI6)
The thermal stability z-score of the first is higher: 0.0454 for the first, -0.0977 for the second.

First: CDC34 (UniProt P49427)
Second: CCNA2 (UniProt P20248)
The thermal stability z-score of the first is lower: -0.142 for the first, 1.41 for the second.

Going from OAS3 (UniProt Q9Y6K5) to COG8 (UniProt Q96MW5), the thermal stability z-score rises from -0.0852 to 0.022.

First: HNRNPA0 (UniProt Q13151)
Second: FAM111B (UniProt Q6SJ93)
The thermal stability z-score of the first is lower: -1.04 for the first, 4.69 for the second.

Going from RLIM (UniProt Q9NVW2) to SIPA1L2 (UniProt Q9P2F8), the thermal stability z-score rises from -0.546 to 0.197.

Compared with CARS2 (UniProt Q9HA77), RNF20 (UniProt Q5VTR2) is higher in thermal stability z-score: -0.273 for the first, -0.218 for the second.

Compared with MITD1 (UniProt Q8WV92), EXOSC7 (UniProt Q15024) is higher in thermal stability z-score: 0.39 for the first, 0.482 for the second.

same assay, conditions: HeLa; lipoamide concentration 100 µM; arsenate co-treatment: none

Going from ELMOD2 (UniProt Q8IZ81) to NCBP2 (UniProt P52298), the thermal stability z-score rises from -0.238 to 0.577.

Compared with BAX (UniProt Q07812), KIAA1429 (UniProt Q69YN4) is lower in thermal stability z-score: 1.42 for the first, -0.035 for the second.

Compared with PLA2G15 (UniProt Q8NCC3), KPNA3 (UniProt O00505) is higher in thermal stability z-score: -0.487 for the first, -0.146 for the second.

Compared with RAB33B (UniProt Q9H082), ENAH (UniProt Q8N8S7) is lower in thermal stability z-score: 0.463 for the first, 0.013 for the second.

First: IL1RAP (UniProt Q9NPH3)
Second: CDCA3 (UniProt Q99618)
The thermal stability z-score of the first is lower: -0.0435 for the first, 0.0335 for the second.

Compared with PIGU (UniProt Q9H490), RCN2 (UniProt Q14257) is lower in thermal stability z-score: -0.665 for the first, -2.81 for the second.

First: PNKD (UniProt Q8N490)
Second: OGT (UniProt O15294)
The thermal stability z-score of the first is higher: 0.758 for the first, -0.08 for the second.

Going from AHSA1 (UniProt O95433) to ATE1 (UniProt O95260), the thermal stability z-score falls from 0.671 to -0.209.

First: DIS3 (UniProt Q9Y2L1)
Second: PDE3A (UniProt Q14432)
Sequence of UniProt Q14432 (Q14432 whole entry): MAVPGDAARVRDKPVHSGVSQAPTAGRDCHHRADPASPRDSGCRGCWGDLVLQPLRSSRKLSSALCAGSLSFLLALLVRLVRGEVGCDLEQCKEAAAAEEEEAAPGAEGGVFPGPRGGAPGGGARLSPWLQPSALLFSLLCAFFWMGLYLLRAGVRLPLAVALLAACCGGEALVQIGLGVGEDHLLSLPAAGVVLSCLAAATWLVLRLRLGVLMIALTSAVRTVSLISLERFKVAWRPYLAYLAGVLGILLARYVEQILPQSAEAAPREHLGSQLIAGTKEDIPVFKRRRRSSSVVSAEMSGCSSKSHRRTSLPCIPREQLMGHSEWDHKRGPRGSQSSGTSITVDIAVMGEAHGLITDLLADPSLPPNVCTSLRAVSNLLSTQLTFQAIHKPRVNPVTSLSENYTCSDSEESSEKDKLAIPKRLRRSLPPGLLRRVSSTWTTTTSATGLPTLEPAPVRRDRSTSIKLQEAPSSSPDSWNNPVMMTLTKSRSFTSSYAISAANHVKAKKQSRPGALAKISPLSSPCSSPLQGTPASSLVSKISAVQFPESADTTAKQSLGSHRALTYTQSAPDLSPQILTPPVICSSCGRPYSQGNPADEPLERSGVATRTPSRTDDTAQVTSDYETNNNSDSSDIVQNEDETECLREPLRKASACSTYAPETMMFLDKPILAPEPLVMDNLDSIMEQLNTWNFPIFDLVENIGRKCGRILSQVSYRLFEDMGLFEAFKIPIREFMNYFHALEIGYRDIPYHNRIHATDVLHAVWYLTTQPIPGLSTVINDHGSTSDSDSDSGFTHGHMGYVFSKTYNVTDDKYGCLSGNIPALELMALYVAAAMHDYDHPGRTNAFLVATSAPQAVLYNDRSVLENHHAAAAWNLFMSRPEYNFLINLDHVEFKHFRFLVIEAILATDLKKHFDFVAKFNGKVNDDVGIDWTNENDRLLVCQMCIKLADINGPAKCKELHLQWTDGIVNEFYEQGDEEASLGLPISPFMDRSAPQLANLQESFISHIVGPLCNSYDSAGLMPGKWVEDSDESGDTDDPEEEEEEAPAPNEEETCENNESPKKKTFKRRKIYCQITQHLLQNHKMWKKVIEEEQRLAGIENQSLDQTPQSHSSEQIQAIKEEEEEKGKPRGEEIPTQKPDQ
The thermal stability z-score of the first is lower: -0.422 for the first, 0.131 for the second.

Compared with ISY1 (UniProt Q9ULR0), MND1 (UniProt Q9BWT6) is lower in thermal stability z-score: 0.693 for the first, -0.0119 for the second.

Going from DNAJC8 (UniProt O75937) to DDAH2 (UniProt O95865), the thermal stability z-score rises from 0.49 to 0.743.

First: ATP1B3 (UniProt P54709)
Second: RNF31 (UniProt Q96EP0)
The thermal stability z-score of the first is lower: -0.138 for the first, 0.0489 for the second.

Compared with ACAA2 (UniProt P42765), GATB (UniProt O75879) is higher in thermal stability z-score: 0.0527 for the first, 0.115 for the second.

First: GCAT (UniProt O75600)
Second: PSMC3 (UniProt P17980)
The thermal stability z-score of the first is lower: -1.04 for the first, -0.0444 for the second.

First: TMX1 (UniProt Q9H3N1)
Second: GMIP (UniProt Q9P107)
The thermal stability z-score of the first is higher: 1.34 for the first, -0.0407 for the second.

First: VASP (UniProt P50552)
Second: COX19 (UniProt Q49B96)
The thermal stability z-score of the first is lower: 0.923 for the first, 0.945 for the second.

Compared with VBP1 (UniProt P61758), LENG1 (UniProt Q96BZ8) is higher in thermal stability z-score: -0.366 for the first, 0.509 for the second.

First: PTGR2 (UniProt Q8N8N7)
Second: RPL27A (UniProt P46776)
The thermal stability z-score of the first is higher: 1.03 for the first, 0.401 for the second.
